{"source": "patent US9375525B2", "about": "“Modular extracorporeal systems and methods for treating blood-borne diseases” (Somerset Group Enterprises, Inc., priority 2012, dated 2016)", "origin": "cited, not measured here", "key": {"[1]": {"test_system": "pathogens", "conditions": "bactericidal or static"}, "[2]": {"test_system": "S. aureus", "conditions": "basic conditions versus slightly acidic conditions"}, "[3]": {"test_system": "Listeria", "conditions": "carbonation volume of about 2, about 35° C., pressure up to about 350 MPa, about 300 seconds"}}, "note": "Where two headings read alike, the source gives them in different places.", "data": [{"compound": "Colistin", "values": [{"measurement": "Issues with Respect to In vivo Toxicity or Side Effects", "setting": "in vivo use", "result": "Only used as last resort antibiotics"}, {"measurement": "activity", "setting": "[1]", "result": "bactericidal"}]}, {"compound": "CN[C@H](CC(C)C)C(=O)N[C@H]1C(=O)N[C@@H](CC(N)=O)C(=O)N[C@H]2C(=O)N[C@H]3C(=O)N[C@H](C(=O)N[C@H](C(=O)O)c4cc(O)cc(O)c4-c4cc3ccc4O)[C@H](O)c3ccc(c(Cl)c3)Oc3cc2cc(c3O[C@@H]2O[C@H](CO)[C@@H](O)[C@H](O)[C@H]2O[C@H]2C[C@](C)(N)[C@H](O)[C@H](C)O2)Oc2ccc(cc2Cl)[C@H]1O", "note": "[vancomycin]", "values": [{"measurement": "killing S. aureus", "setting": "[2]", "result": "under basic conditions better than under slightly acidic conditions"}]}, {"compound": "CCCCCCCCCC(=O)N[C@@H](Cc1c[nH]c2ccccc12)C(=O)N[C@H](CC(N)=O)C(=O)N[C@@H](CC(=O)O)C(=O)N[C@@H]1C(=O)NCC(=O)N[C@@H](CCCN)C(=O)N[C@@H](CC(=O)O)C(=O)N[C@H](C)C(=O)N[C@@H](CC(=O)O)C(=O)NCC(=O)N[C@H](CO)C(=O)N[C@@H]([C@H](C)CC(=O)O)C(=O)N[C@@H](CC(=O)c2ccccc2N)C(=O)O[C@@H]1C", "note": "[Daptomycin]", "values": [{"measurement": "activity", "setting": "[1]", "result": "bactericidal"}]}, {"compound": "N[C@@H]1[C@H]2CN(c3nc4c(cc3F)c(=O)c(C(=O)O)cn4-c3ccc(F)cc3F)C[C@@H]12", "note": "[Trovafloxacin]", "values": [{"measurement": "Issues with Respect to In vivo Toxicity or Side Effects", "setting": "in vivo", "result": "Histamine release, Idiosyncratic"}, {"measurement": "activity", "setting": "[1]", "result": "bactericidal"}]}, {"compound": "CN(C)c1cc(NC(=O)CNC(C)(C)C)c(O)c2c1C[C@H]1C[C@H]3[C@H](N(C)C)C(O)=C(C(N)=O)C(=O)[C@@]3(O)C(O)=C1C2=O", "note": "[Tigecycline]", "values": [{"measurement": "activity", "setting": "[1]", "result": "static"}]}, {"compound": "Gentamycin", "values": [{"measurement": "Issues with Respect to In vivo Toxicity or Side Effects", "setting": "in vivo use", "result": "Nephrotoxicity, ototoxicity"}, {"measurement": "activity", "setting": "[1]", "result": "bactericidal"}]}, {"compound": "NC[C@H]1O[C@H](O[C@H]2[C@H](O)[C@@H](O[C@H]3O[C@H](CO)[C@@H](O)[C@H](N)[C@H]3O)[C@H](N)C[C@@H]2N)[C@H](N)C[C@@H]1O", "note": "[Tobramycin]", "values": [{"measurement": "Issues with Respect to In vivo Toxicity or Side Effects", "setting": "in vivo", "result": "Nephrotoxicity, ototoxicity"}, {"measurement": "activity", "setting": "[1]", "result": "bactericidal"}]}, {"compound": "Polymixin B", "values": [{"measurement": "Issues with Respect to In vivo Toxicity or Side Effects", "setting": "in vivo", "result": "due to renal and neurotoxicity"}, {"measurement": "activity", "setting": "[1]", "result": "bactericidal"}]}, {"compound": "O=C(O)c1cn(C2CC2)c2cc(N3CCNCC3)c(F)cc2c1=O", "note": "[Ciprofloxalin]", "values": [{"measurement": "activity", "setting": "[1]", "result": "bactericidal"}]}, {"compound": "NCC[C@H](O)C(=O)N[C@@H]1C[C@H](N)[C@@H](O[C@H]2O[C@H](CN)[C@@H](O)[C@H](O)[C@H]2O)[C@H](O)[C@H]1O[C@H]1O[C@H](CO)[C@@H](O)[C@H](N)[C@H]1O", "note": "[Amikacin]", "values": [{"measurement": "Issues with Respect to In vivo Toxicity or Side Effects", "setting": "in vivo", "result": "Nephrotoxicity, ototoxicity"}, {"measurement": "activity", "setting": "[1]", "result": "bactericidal"}]}, {"compound": "O=C=O", "note": "[CO2, Carbon dioxide]", "values": [{"measurement": "inactivation of Listeria", "setting": "[3]", "result": "enhanced the inactivation"}]}]}
